Assay results: the NIST ThermoML archive (doi:10.1016/j.jct.2018.11.014)

Experiment: molar heat capacity at constant pressure
Details: 101.33 kPa, Crystal, Vacuum adiabatic calorimetry

O=C(CO)[C@H](O)[C@H](O)[C@H](O)CO [D-psicose]
Details | molar heat capacity at constant pressure [J/K/mol]
59.58 K | 45.03
60 K | 45.42
60.41 K | 45.79
61.24 K | 46.57
62.08 K | 47.21
62.92 K | 47.95
63.78 K | 48.66
64.64 K | 49.47
65.5 K | 50.22
66.42 K | 50.91
67.38 K | 51.71
68.32 K | 52.51
69.24 K | 53.27
70 K | 53.92
70.15 K | 54.04
71.1 K | 54.88
72.09 K | 55.67
73.08 K | 56.51
74.09 K | 57.32
75.11 K | 58.14
76.17 K | 59.03
77.3 K | 59.96
78.43 K | 60.89
79.19 K | 61.65
79.55 K | 61.8
80 K | 62.17
80.16 K | 62.27
80.67 K | 62.64
81.12 K | 63.07
81.85 K | 63.65
82.06 K | 63.87
82.72 K | 64.37
83.04 K | 64.72
83.07 K | 64.59
83.74 K | 65.19
84.05 K | 65.44
84.3 K | 65.6
84.74 K | 66.03
85.05 K | 66.26
85.58 K | 66.72
85.73 K | 66.8
86.07 K | 67.06
86.71 K | 67.55
86.87 K | 67.6
87.09 K | 67.95
87.73 K | 68.44
88.15 K | 68.72
88.2 K | 68.72
88.8 K | 69.22
89.24 K | 69.63
89.57 K | 69.81
89.88 K | 70.11
90 K | 70.2
90.32 K | 70.45
90.92 K | 70.89
90.95 K | 70.98
91.39 K | 71.33
92.01 K | 71.78
92.24 K | 71.95
92.44 K | 72.09
93.1 K | 72.72
93.53 K | 73.06
93.55 K | 72.93
94.22 K | 73.58
94.64 K | 73.83
94.9 K | 74.01
95.33 K | 74.47
95.76 K | 74.71
96.28 K | 75.12
96.44 K | 75.31
96.92 K | 75.66
97.56 K | 76.24
97.64 K | 76.12
98.12 K | 76.55
98.71 K | 77.11
98.99 K | 77.22
99.36 K | 77.58
99.92 K | 78.04
100 K | 78.04
100.32 K | 78.22
100.64 K | 78.58
101.13 K | 78.97
101.68 K | 79.27
101.91 K | 79.49
102.33 K | 79.86
103.08 K | 80.34
103.16 K | 80.4
103.51 K | 80.73
104.4 K | 81.45
104.47 K | 81.42
104.73 K | 81.75
105.67 K | 82.37
105.83 K | 82.47
105.97 K | 82.66
106.98 K | 83.32
107.19 K | 83.5
107.21 K | 83.56
108.27 K | 84.28
108.43 K | 84.6
108.57 K | 84.51
109.54 K | 85.27
109.64 K | 85.41
109.99 K | 85.61
110 K | 85.65
110.81 K | 86.25
110.88 K | 86.33
111.39 K | 86.67
112.1 K | 87.19
112.15 K | 87.32
112.78 K | 87.7
113.41 K | 88.29
113.43 K | 88.23
114.16 K | 88.71
114.66 K | 89.15
114.74 K | 89.18
115.57 K | 89.78
115.89 K | 90.08
116.04 K | 90.2
117.01 K | 90.83
117.16 K | 91.03
117.33 K | 91.11
118.44 K | 91.9
118.47 K | 92.11
118.65 K | 92.13
119.8 K | 92.98
119.86 K | 92.95
120 K | 93.09
120.39 K | 93.31
121.11 K | 93.95
121.28 K | 94.01
121.69 K | 94.22
122.42 K | 94.92
122.77 K | 95.15
